The target of test [1] is recombinant human AKR1C3 (Homo sapiens (Human), UniProt P42330). The experiment in a line: AKR1C3-inhibitory activity assay (Coumberone to Coumberol fluorescence). It counts as biochemical. Conditions: recombinant human AKR1C3, 15 min pre-incubation, 10 μM NADPH, 0.3 μM Coumberone. Here is the method: The AKR1C3-inhibitory activity of the substances of the present invention was measured in the AKR1C3 assay described in the paragraphs below.
Essentially, the enzyme activity is measured by quantification of the generation of Coumberol from Coumberone (Halim et al. J. AM. CHEM. SOC. 2008, 130:14123-14128 and Yee et al. Proc. Natl. Acad. Sci. USA 2006, 103:13304-13309). In this test, the increase of the highly fluorescent Coumberol by NADPH—(nicotinamide adenine dinucleotide phosphate)-dependent reduction of the non-fluorescent Coumberone by AKR1C3 was determined.
The enzyme used was recombinant human AKR1C3 (Aldo-keto reductase family 1 member C3; GenBank Accession No. NM_003739). This was expressed in E. coli as GST (glutathione S transferase) fusion protein and purified by glutathione Sepharose affinity chromatography. The GST was removed by digestion with thrombin and subsequent size exclusion chromatography (Dufort, I., Rheault, P., Huang, X F., Soucy, P., and Luu-The, V., Endocrinology 140, 568-574 (1999)).
For the assay, 50 nl of a 100-fold concentrated solution of the test substance in DMSO were pipetted into a black low-volume 384-well microtiter plate (Greiner Bio-One, Frickenhausen, Germany), 2.5 μl of a solution of AKR1C3 in assay buffer [50 mM potassium phosphate buffer pH 7, 1 mM DTT, 0.0022% (w/v) Pluronic F-127, 0.01% BSA (w/v) and protease inhibitor cocktail (Complete, EDTA-free Protease Inhibitor Cocktail from Roche)] were added and the mixture was incubated for 15 min to allow pre-binding of the substances to the enzyme prior to the enzyme reaction. The enzyme reaction was then started by addition of 2.5 μl of a solution of NADPH (20 μM→final concentration in 5 μl of assay volume is 10 μM) and Coumberone (0.6 μM→final concentration in 5 μl of assay volume is 0.3 μM) in assay buffer, and the resulting mixture was incubated at 22° C. for the reaction time of typically 90 min. The concentration of the AKR1C3 and the reaction time was adapted to the respective activity of the enzyme preparation and adjusted such that the assay was carried out in the linear range. Typical AKR1C3 concentrations were in the region of 1 nM. The reaction was stopped by addition of 2.5 μl of a stop solution consisting of 3 μM EM-1404 as inhibitor (U.S. Pat. No. 6,541,463) in 50 mM HEPES pH7.5 (3 μM EM-1404→final concentration in 7.5 μl of assay volume is 1 μM). The fluorescence of the Coumberole was then measured at 520 nm (excitation at 380 nm) using a suitable measuring instrument (Pherastar from BMG Labtechnologies). The intensity of the fluorescence was used as a measure of the amount of Coumberole formed and thus of the enzyme activity of AKR1C3. The data were normalized (enzyme reaction without inhibitor=0% inhibition; all other assay components, but no enzyme=100% inhibition).

Test [2] concerns human primary adipocytes. Put plainly: Inhibition of testosterone formation from androstenedione in human primary adipocytes. The settings on record: 1 μM androstenedione, 1 μM or 10 μM compound, 48 h, donors with BMI 26 and 30. The test is classed as cell-based. Here is the method: Cat# SA-1012-3 12 well Platte). Adipocytes were incubated in Adipocyte Basal Medium (Fa. ZenBio, Cat# BM-1)+1% FCS+2.5 μg/ml Amphotericin B (Fa. […] Androstenedione served as a substrate for the formation into testosterone. After the incubation adipocytes were collected and testosterone and androstenedione concentrations were determined by LC/MS at the “Bioanalytical Service and research provider Pharm-Analyt”. Inhibition of the conversion of androstenedione to testosterone by compound 76 is determined as Testosterone/Androstenedione ratio [%]. […] FIG. 1: […] The testosterone/androstenedione ratio [%] is shown.

Test [3] has as its system endometriotic lesions. The experiment in a line: Callithrix jacchus endometriosis model. The test is classed as in vivo. The settings on record: 5 mg/kg orally once per day, 6 weeks. Here is the method: The in vivo efficacy of compound 76 was tested in a non-human primate endometriosis model in marmoset monkeys.
Marmoset monkeys (Callithrix jacchus) are non-menstruating species in which endometriosis was induced by injection of endometrial tissue into the peritoneal cavity (Einspanier, Lieder et al, 2006). 6-12 year old female common marmosets with established endometriosis were employed (body weight between 358 g and 520 g) and distributed into 2 groups, with a size of n=5 animals per group. Prior to the actual start of the treatment, the animals were subjected to a laparotomy and examined for the presence of endometriotic lesions on the bladder, the uterus and the ovaries to measure each lesion's area. The randomization of animals into the two treatment groups was performed with respect to the initial lesion status at the first laparotomy. The endometriosis severity based on total lesion area per animal was distributed similarly across the groups.
For both the treatment group (5 mg/kg of compound 76) and vehicle treated group, the sum of total lesion area/size [cm^2] per animal, with respect to lesion area and lesion number, was determined and defined as pre-treatment status. 6 weeks later the treatment was started. The test compounds were administered orally once per day in capsules (PC Caps® capsules, Capsugel). To adapt for the intended dose, a trituration of the active compound with lactose was prepared and the exact dose was filled into the individual capsules. Each capsule was separately coated with salvia resistant coating (Eudragit EPO; Evonik). After the end of a 6 weeks treatment period, a second laparotomy was carried out and the number and size of the lesions on uterus, ovaries and bladder was determined with respect to total lesion size/area and defined as post-treatment status.

These results are taken from patent US10167293B2, “[8-(phenylsulfonyl)-3,8-diazabicyclo[3.2.1]oct-3-yl](1H-1,2,3-triazol-4-yl)methanones” (BAYER PHARMA AKTIENGESELLSCHAFT, priority 2016, dated 2019).

A word on the IC50: it is the concentration at which inhibition is half-maximal.

Sequence of recombinant human AKR1C3 (P42330 whole entry): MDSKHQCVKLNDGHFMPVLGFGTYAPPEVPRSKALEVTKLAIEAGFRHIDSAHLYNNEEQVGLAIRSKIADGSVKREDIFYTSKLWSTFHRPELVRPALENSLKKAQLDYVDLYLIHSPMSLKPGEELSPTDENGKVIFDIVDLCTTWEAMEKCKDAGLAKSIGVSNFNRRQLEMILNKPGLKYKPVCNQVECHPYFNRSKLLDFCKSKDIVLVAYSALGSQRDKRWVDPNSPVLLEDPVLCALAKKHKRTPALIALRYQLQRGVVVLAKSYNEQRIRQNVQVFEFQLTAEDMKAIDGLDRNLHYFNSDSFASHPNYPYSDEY

On to `O=C(c1cnn[nH]1)N1CC2CCC(C1)N2S(=O)(=O)c1ccc2nsnc2c1` [Example 58, [8-(2,1,3-benzothiadiazol-5-ylsulfonyl)-3,8-diazabicyclo[3.2.1]oct-3-yl](1H-1,2,3-triazol-5-yl)methanone], for which, in test [1], the IC50 was 1.2 nM.
On to `O=C(c1cnn[nH]1)N1CC2CCC(C1)N2S(=O)(=O)c1ccc(F)c(F)c1F` [Example 59, 1H-1,2,3-triazol-5-yl{8-[(2,3,4-trifluorophenyl)sulfonyl]-3,8-diazabicyclo[3.2.1]oct-3-yl}methanone], for which the concentration for half-maximal inhibition (IC50) in test [1] was 2.2 nM.
For the compound `N#Cc1cc(S(=O)(=O)N2C3CCC2CN(C(=O)c2cnn[nH]2)C3)ccc1F` [Example 60, 2-fluoro-5-{[3-(1H-1,2,3-triazol-5-ylcarbonyl)-3,8-diazabicyclo[3.2.1]oct-8-yl]sulfonyl}benzonitrile], the IC50 in test [1] came out at 28.4 nM.
Regarding `O=C(c1cnn[nH]1)N1CC2CCC(C1)N2S(=O)(=O)c1cc(Cl)ccc1F` [Example 61, {8-[(5-chloro-2-fluorophenyl)sulfonyl]-3,8-diazabicyclo[3.2.1]oct-3-yl}(1H-1,2,3-triazol-5-yl)methanone], the IC50 in test [1] amounted to 1.5 nM.
Take `O=C(c1cnn[nH]1)N1CC2CCC(C1)N2S(=O)(=O)c1cc(F)c(F)cc1F` [Example 62, 1H-1,2,3-triazol-5-yl{8-[(2,4,5-trifluorophenyl)sulfonyl]-3,8-diazabicyclo[3.2.1]oct-3-yl}methanone]: in test [1], the IC50 is 2.8 nM.
Take `Cc1ccc(Cl)cc1S(=O)(=O)N1C2CCC1CN(C(=O)c1cnn[nH]1)C2` [Example 63, {8-[(5-chloro-2-methylphenyl)sulfonyl]-3,8-diazabicyclo[3.2.1]oct-3-yl}(1H-1,2,3-triazol-5-yl)methanone]: in test [1], the 50% inhibitory concentration (IC50) came out at 1.7 nM.
The same measure, in the same setting: next, `COc1ccccc1S(=O)(=O)N1C2CCC1CN(C(=O)c1cnn[nH]1)C2` [Example 64, {8-[(2-methoxyphenyl)sulfonyl]-3,8-diazabicyclo[3.2.1]oct-3-yl}(1H-1,2,3-triazol-5-yl)methanone]: 1.3 nM.
`Cc1ccc(Br)cc1S(=O)(=O)N1C2CCC1CN(C(=O)c1cnn[nH]1)C2` [Example 65, {8-[(5-bromo-2-methylphenyl)sulfonyl]-3,8-diazabicyclo[3.2.1]oct-3-yl}(1H-1,2,3-triazol-5-yl)methanone]: the IC50 in test [1] is 0.5 nM.
The same measure, in the same setting: with `O=C(c1cnn[nH]1)N1CC2CCC(C1)N2S(=O)(=O)c1ccc2c(c1)OCO2` [Example 66, [8-(1,3-benzodioxol-5-ylsulfonyl)-3,8-diazabicyclo[3.2.1]oct-3-yl](1H-1,2,3-triazol-5-yl)methanone] the figure was 0.9 nM; with `COc1cc(C)ccc1S(=O)(=O)N1C2CCC1CN(C(=O)c1cnn[nH]1)C2` [Example 67, {8-[(2-methoxy-4-methylphenyl)sulfonyl]-3,8-diazabicyclo[3.2.1]oct-3-yl}(1H-1,2,3-triazol-5-yl)methanone], 1 nM.
Take `N#Cc1c(Cl)cccc1S(=O)(=O)N1C2CCC1CN(C(=O)c1cnn[nH]1)C2` [Example 68, 2-chloro-6-{[3-(1H-1,2,3-triazol-5-ylcarbonyl)-3,8-diazabicyclo[3.2.1]oct-8-yl]sulfonyl}benzonitrile]: the concentration for half-maximal inhibition (IC50) in test [1] stood at 1.3 nM.
Take `O=C(c1cnn[nH]1)N1CC2CCC(C1)N2S(=O)(=O)c1cccc2c1OCC2` [Example 69, [8-(2,3-dihydro-1-benzofuran-7-ylsulfonyl)-3,8-diazabicyclo[3.2.1]oct-3-yl](1H-1,2,3-triazol-5-yl)methanone]: the 50% inhibitory concentration (IC50) in test [1] is 0.6 nM.
Consider `O=C(c1cnn[nH]1)N1CC2CCC(C1)N2S(=O)(=O)c1cc(F)ccc1Cl` [Example 70, {8-[(2-chloro-5-fluorophenyl)sulfonyl]-3,8-diazabicyclo[3.2.1]oct-3-yl}(1H-1,2,3-triazol-5-yl)methanone], for which the IC50 in test [1] was 0.5 nM.
As for `O=C(c1cnn[nH]1)N1CC2CCC(C1)N2S(=O)(=O)c1cccc(F)c1Cl` [Example 71, {8-[(2-chloro-3-fluorophenyl)sulfonyl]-3,8-diazabicyclo[3.2.1]oct-3-yl}(1H-1,2,3-triazol-5-yl)methanone], in test [1], the IC50 stood at 0.8 nM.
`COc1cc(F)ccc1S(=O)(=O)N1C2CCC1CN(C(=O)c1cnn[nH]1)C2` [Example 72, {8-[(4-fluoro-2-methoxyphenyl)sulfonyl]-3,8-diazabicyclo[3.2.1]oct-3-yl}(1H-1,2,3-triazol-5-yl)methanone]: in test [1], the IC50 came to 1.1 nM.
As to `COc1ccc(C#N)cc1S(=O)(=O)N1C2CCC1CN(C(=O)c1cnn[nH]1)C2` [Example 73, 4-methoxy-3-{[3-(1H-1,2,3-triazol-5-ylcarbonyl)-3,8-diazabicyclo[3.2.1]oct-8-yl]sulfonyl}benzonitrile], the IC50 in test [1] was found to be 28 nM.
For the compound `N#Cc1ccc(Cl)c(S(=O)(=O)N2C3CCC2CN(C(=O)c2cnn[nH]2)C3)c1` [Example 74, 4-chloro-3-{[3-(1H-1,2,3-triazol-5-ylcarbonyl)-3,8-diazabicyclo[3.2.1]oct-8-yl]sulfonyl}benzonitrile], the half-maximal inhibitory concentration (IC50) in test [1] amounted to 5.5 nM.
Turning to `O=C(c1cnn[nH]1)N1CC2CCC(C1)N2S(=O)(=O)c1cc(F)cc(F)c1` [Example 75, sodium 5-({8-[(3,5-difluorophenyl)sulfonyl]-3,8-diazabicyclo[3.2.1]oct-3-yl}carbonyl)-1,2,3-triazol-1-ide], the IC50 in test [1] amounted to 0.7 nM.
As for `O=C(c1cnn[n-]1)N1CC2CCC(C1)N2S(=O)(=O)c1cccc(F)c1.[Na+]` [Example 76, sodium 5-({8-[(3-fluorophenyl)sulfonyl]-3,8-diazabicyclo[3.2.1]oct-3-yl}carbonyl)-1,2,3-triazol-1-ide], the IC50 in test [1] was determined as 1.1 nM. The “formation of testosterone from androstenedione (Testosterone/Androstenedione ratio)” value in test [2] is “inhibited”. Besides, in test [3] (n=5), the “mean reduction of the total lesion size compared to baseline” value came to 68.9%. Further, in test [3] (all treated animals), the “ratio of total lesion size/area post- versus pre-treatment” value was “below 1”. Further, in test [3] (marmosets with established endometriosis), the “total lesion size post-treatment versus pre-treatment” value is recorded as “strongly reduced”.
